The values below come from patent US11091478B2 (Fochon Pharmaceuticals, Ltd., priority 2017, dated 2021).

One assay concerns RS4;11 cells. Briefly: Cell proliferation assay (MTS), RS4;11 cells, 72 h. The format is cell-based. As to conditions: Homo sapiens, RS4-11, 72 h. The essentials:
(§1)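 Cells in RPMI-1640 with 10% FBS were seeded at 5000/well, left overnight at 37° C., 5% CO2, then exposed to compound at 10000 down to 1.5 nM (nine concentrations) for 72 h (RS4;11) or 120 h (DOHH2). Viability was read by MTS, 2 h, absorbance at 490/650 nm; IC50 calculated.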

A further assay relates to DOHH2 cells. Kind of assay: Cell proliferation assay (MTS), DOHH2 cells, 120 h. The class given is cell-based. The essentials: as §1

Where two headings read alike, the source gives them in different places.

In general, IC50 refers to the point on the concentration scale where inhibition reaches its midpoint. For `CC1(C)CCC(CN2CCN(c3ccc(C(=O)NS(=O)(=O)c4cc5c(c([N+](=O)[O-])c4)N[C@@H](Cc4ccccc4)CO5)c(Oc4cnc5[nH]ccc5c4)c3)CC2)=C(c2ccc(Cl)cc2)C1` [Example 2-132, (S)-2-((1H-pyrrolo[2,3-b]pyridin-5-yl)oxy)-N-((3-benzyl-5-nitro-3,4-dihydro-2H-benzo [b][1,4]oxazin-7-yl)sulfonyl)-4-(4-((4′-chloro-5,5-dimethyl-3,4,5,6-tetrahydro-[1,1′-biphenyl]-2-yl)meth-yl)piperazin1-yl)benzamide], the IC50 with RS4;11 cells came out at 2 nM; with DOHH2 cells (Homo sapiens, DOHH-2, 120 h), 28 nM.
For `CN(C)C[C@@H]1CSc2cc(S(=O)(=O)NC(=O)c3ccc(N4CCN(CC5=C(c6ccc(Cl)cc6)CC(C)(C)CC5)CC4)cc3Oc3cnc4[nH]ccc4c3)cc([N+](=O)[O-])c2N1` [Example 3-4, (R)-2-((1H-pyrrolo[2,3-b]pyridin-5-yl)oxy)-4-(4-((4′-chloro-5,5-dimethyl-3,4,5,6-tetra-hydro-[1,1′-biphenyl]-2-yl)methyl)piperazin-1-yl)-N-((3-((dimethylamino)methyl)-5-nitro-3,4-dihydro-2H-benzo[b][1,4]thiazin-7-yl)sulfonyl)benzamide] the same measures were 12 nM and 41 nM.
For the molecule `CC1(C)CCC(CN2CCN(c3ccc(C(=O)NS(=O)(=O)c4cc5c(c([N+](=O)[O-])c4)N[C@@H](CC4CCC(O)CC4)CO5)c(Oc4cnc5[nH]ccc5c4)c3)CC2)=C(c2ccc(Cl)cc2)C1` (single isomer, unassigned) [Example 2-244A], the IC50 in the assay on RS4;11 cells was 3 nM; with DOHH2 cells it was 7 nM.
As to `CC(C)OC[C@@H]1COc2cc(S(=O)(=O)NC(=O)c3ccc(N4CCN(CC5=C(c6ccc(Cl)cc6)CC(C)(C)CC5)CC4)cc3Oc3cnc4[nH]ccc4c3)cc([N+](=O)[O-])c2N1` [Example 2-236, (R)-2-((1H-pyrrolo[2,3-b]pyridin-5-yl)oxy)-4-(4-((4′-chloro-5,5-dimethyl-3,4,5,6-tetra-hydro-[1,1′-biphenyl]-2-yl)methyl)piperazin-1-yl)-N-((3-(isopropoxymethyl)-5-nitro-3,4-dihydro-2H-benzo[b][1,4]oxazin-7-yl)sulfonyl)benzamide], the concentration for half-maximal inhibition (IC50) in the assay on RS4;11 cells amounted to 1 nM; with DOHH2 cells (Homo sapiens, DOHH-2, 120 h), 6 nM.
With `CC1(C)CCC(CN2CCN(c3ccc(C(=O)NS(=O)(=O)c4cc5c(c([N+](=O)[O-])c4)N[C@@H](CN=S(C)(C)=O)CO5)c(Oc4cnc5[nH]ccc5c4)c3)CC2)=C(c2ccc(Cl)cc2)C1` [Example 2-75, (S)-2-((1H-pyrrolo[2,3-b]pyridin-5-yl)oxy)-4-(4-((4′-chloro-5,5-dimethyl-3,4,5,6-tetra-hydro-[1,1′-biphenyl]-2-yl)methyl)piperazin-1-yl)-N-((3-(((dimethyl(oxo)-λ^6-sulfanyl-idene)amino)methyl)-5-nitro-3,4-dihydro-2H-benzo[b][1,4]oxazin-7-yl)sulfonyl)benza-mide], the IC50 in the assay on RS4;11 cells came out at 1 nM; in the assay with DOHH2 cells (Homo sapiens, DOHH-2, 120 h), 64 nM.
`CC1(C)CCC(CN2CCN(c3ccc(C(=O)NS(=O)(=O)c4cc5c(c([N+](=O)[O-])c4)N[C@@H](CN4CCN(C6COC6)CC4)CO5)c(Oc4cnc5[nH]ccc5c4)c3)CC2)=C(c2ccc(Cl)cc2)C1` [Example 2-28, (S)-2-((1H-pyrrolo[2,3-b]pyridin-5-yl)oxy)-4-(4-((4′-chloro-5,5-dimethyl-3,4,5,6-tetra-hydro-[1,1′-biphenyl]-2-yl)methyl)piperazin-1-yl)-N-((5-nitro-3-((4-(oxetan-3-yl)piper-azin-1-yl)methyl)-3,4-dihydro-2H-benzo[b] [1,4]oxazin-7-yl)sulfonyl)benzamide]: the IC50 with RS4;11 cells is 1 nM; in the assay with DOHH2 cells (Homo sapiens, DOHH-2, 120 h) it was 1 nM.
As to `COC(=O)NC[C@@H]1COc2cc(S(=O)(=O)NC(=O)c3ccc(N4CCN(CC5=C(c6ccc(Cl)cc6)CC(C)(C)CC5)CC4)cc3Oc3cnc4[nH]ccc4c3)cc([N+](=O)[O-])c2N1` [Example 2-134, methyl (R)-((7-(N-(2-((1H-pyrrolo[2,3-b]pyridin-5-yl)oxy)-4-(4-((4′-chloro-5,5-dimethyl-3,4,5,6-tetrahydro-[1,1′-biphenyl]-2-yl)methyl)piperazin-1-yl)benzoyl)sulfamoyl)-5-nitro-3,4-dihydro-2H-benzo[b][1,4]oxazin-3-yl)methyl)carbamate], the IC50 was 2 nM in the assay with RS4;11 cells and 39 nM in the assay on DOHH2 cells (Homo sapiens, DOHH-2, 120 h).
As to `CN1CCN(C[C@@H]2CNc3cc(S(=O)(=O)NC(=O)c4ccc(N5CCN(CC6=C(c7ccc(Cl)cc7)CC(C)(C)CC6)CC5)cc4Oc4cnc5[nH]ccc5c4)cc([N+](=O)[O-])c3N2)CC1` [Example 4-1, (S)-2-((1H-pyrrolo[2,3-b]pyridin-5-yl)oxy)-4-(4-((4′-chloro-5,5-dimethyl-3,4,5,6-tetrahydro-[1,1′-biphenyl]-2-yl)methyl)piperazin-1-yl)-N-((2-((4-methylpiperazin-1-yl)methyl)-8-nitro-1,2,3,4-tetrahydroquinoxalin-6-yl)sulfonyl)benzamide], the IC50 in the assay with RS4;11 cells was found to be 1 nM; in the assay with DOHH2 cells (Homo sapiens, DOHH-2, 120 h), 13 nM.
In the same order, the values of `CC(=O)N1CCC([C@@H]2COc3cc(S(=O)(=O)NC(=O)c4ccc(N5CCN(CC6=C(c7ccc(Cl)cc7)CC(C)(C)CC6)CC5)cc4Oc4cnc5[nH]ccc5c4)cc([N+](=O)[O-])c3N2)CC1` [Example 2-224, (R)-2-((1H-pyrrolo[2,3-b]pyridin-5-yl)oxy)-N-((3-(1-acetylpiperidin-4-yl)-5-nitro-3,4-dihydro-2H-benzo[b][1,4]oxazin-7-yl)sulfo-nyl)-4-(4-((4′-chloro-5,5-dimethyl-3,4,5,6-tetrahydro-[1,1′-biphenyl]-2-yl)methyl)piper-azin-1-yl)benzamide] are 4 nM and 3 nM.
In the case of `CC1(C)CCC(CN2CCN(c3ccc(C(=O)NS(=O)(=O)c4cc5c(c([N+](=O)[O-])c4)N[C@H](CN4CCOCC4)C5)c(Oc4cnc5[nH]ccc5c4)c3)CC2)=C(c2ccc(Cl)cc2)C1` [Example 1-1, (S)-2-((1H-pyrrolo[2,3-b]pyridin-5-yl)oxy)-4-(4-((4′-chloro-5,5-dimethyl-3,4,5,6-tetrahydro-[1,1′-biphenyl]-2-yl)methyl)piperazin-1-yl)-N-((2-(morpholinomethyl)-7-nitroindolin-5-yl)sulfonyl)benzamide], the concentration for half-maximal inhibition (IC50) in the assay on RS4;11 cells is 48 nM; in the assay on DOHH2 cells (Homo sapiens, DOHH-2, 120 h), 80 nM.
In the same order, the values of `CC1(C)CCC(CN2CCN(c3ccc(C(=O)NS(=O)(=O)c4cc5c(c([N+](=O)[O-])c4)N[C@@H](CC(=O)N4CCOCC4)C5)c(Oc4cnc5[nH]ccc5c4)c3)CC2)=C(c2ccc(Cl)cc2)C1` [Example 1-26, (R)-2-((1H-pyrrolo[2,3-b]pyridin-5-yl)oxy)-4-(4-((4′-chloro-5,5-dimethyl-3,4,5,6-tetra-hydro-[1,1′-biphenyl]-2-yl)methyl)piperazin-1-yl)-N-((2-(2-morpholino-2-oxoethyl)-7-nitroindolin-5-yl)sulfonyl)benzamide] are 12 nM and 102 nM.
For `C[C@H]1CN(C[C@@H]2COc3cc(S(=O)(=O)NC(=O)c4ccc(N5CCN(CC6=C(c7ccc(Cl)cc7)CC(C)(C)CC6)CC5)cc4Oc4cnc5[nH]ccc5c4)cc([N+](=O)[O-])c3N2)CCO1` [Example 2-79, 2-((1H-pyrrolo[2,3-b]pyridin-5-yl)oxy)-4-(4-((4′-chloro-5,5-dimethyl-3,4,5,6-tetrahydro-[1,1′-biphenyl]-2-yl)methyl)piperazin-1-yl)-N-(((R)-3-(((S)-2-methylmorpholino)methyl)-5-nitro-3,4-dihydro-2H-benzo[b][1,4]oxazin-7-yl)sulfonyl)benzamide] the same measures were 7 nM and 55 nM.
